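Briefly, cells in 96-well plates were exposed to five compound concentrations for 48 h, and endpoints were estimated by linear interpolation. TGI: total growth inhibition.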
Experiments:
Assay in all cases: growth of human tumour cells (NCI), 48 h
[1] = system: MDA-MB-231 breast
[2] = system: SK-OV-3 ovarian
[3] = system: PC-3 prostate
[4] = system: T-47D breast
[5] = system: MOLT-4 leukemia
[6] = system: RPMI-8226 leukemia
[7] = system: HT29 colon
[8] = system: A549 NSCLC
[9] = system: HOP-62 NSCLC
[10] = system: OVCAR-3 ovarian
[11] = system: SN12C renal
[12] = system: SNB-75 CNS
[13] = system: SF-268 CNS
[14] = system: CAKI-1 renal
[15] = system: K-562 leukemia
[16] = system: TK-10 renal
[17] = system: HCT-116 colon
[18] = system: BT-549 breast
[19] = system: HOP-92 NSCLC
[20] = system: NCI/ADR-RES ovarian
[21] = system: IGROV1 ovarian
[22] = system: DU-145 prostate
[23] = system: SK-MEL-28 melanoma
[24] = system: SW-620 colon
[25] = system: SF-295 CNS
[26] = system: SK-MEL-2 melanoma
[27] = system: HS 578T breast
[28] = system: 786-0 renal
[29] = system: M14 melanoma
[30] = system: UACC-257 melanoma
[31] = system: MDA-MB-435
[32] = system: OVCAR-5 ovarian
[33] = system: NCI-H226 lung
[34] = system: ACHN renal
[35] = system: LOX IMVI melanoma
[36] = system: U251 CNS
[37] = system: SNB-19 CNS
[38] = system: SF-539 CNS
[39] = system: OVCAR-4 ovarian
[40] = system: RXF 393 renal
[41] = system: UACC-62 melanoma
[42] = system: MDA-N
[43] = system: NCI-H23 lung
[44] = system: OVCAR-8 ovarian
[45] = system: SR leukemia
[46] = system: HCT-15 colon
[47] = system: MALME-3M melanoma
[48] = system: EKVX NSCLC
[49] = system: MCF7 breast
[50] = system: HCC-2998 colon
[51] = system: CCRF-CEM leukemia
[52] = system: KM12 colon
[53] = system: COLO 205 colon
[54] = system: SK-MEL-5 melanoma
[55] = system: NCI-H522 lung
[56] = system: NCI-H460 lung
[57] = system: UO-31 renal
[58] = system: HL-60(TB) leukemia
[59] = system: A498 renal

CCN1CCC(O)(c2ccc(Oc3ccc(F)cc3)cc2)C(C(=O)c2ccc(Oc3ccc(F)cc3)cc2)C1 (stereo unspecified)
TGI [1]: 26.6 µM
TGI [2]: 32.2 µM
TGI [3]: 26.4 µM
TGI [4]: 30.9 µM
TGI [5]: 41.3 µM
TGI [6]: 8.03 µM
TGI [7]: 23.6 µM
TGI [8]: 29.5 µM
TGI [9]: 30.1 µM
TGI [10]: 28.6 µM
TGI [11]: 27.5 µM
TGI [12]: 30.3 µM
TGI [13]: 34.9 µM
TGI [14]: 25.7 µM
TGI [15]: > 100 µM
TGI [16]: 23.5 µM
TGI [17]: 27.4 µM
TGI [18]: 29.1 µM
TGI [19]: 24.4 µM
TGI [20]: 30.1 µM
TGI [21]: 24.1 µM
TGI [22]: 24.7 µM
TGI [23]: 30.5 µM
TGI [24]: 30.3 µM
TGI [25]: 29.3 µM
TGI [26]: 31.6 µM
TGI [27]: 38.4 µM
TGI [28]: 26.4 µM
TGI [29]: 30.9 µM
TGI [30]: 29.8 µM
TGI [31]: 30.8 µM
TGI [32]: 28.5 µM
TGI [33]: 29.5 µM
TGI [34]: 26.8 µM
TGI [35]: 25.9 µM
TGI [36]: 30.1 µM
TGI [37]: 29.6 µM
TGI [38]: 33.2 µM
TGI [39]: 29 µM
TGI [40]: 25.8 µM
TGI [41]: 28 µM
TGI [42]: 30.6 µM
TGI [43]: 28 µM
TGI [44]: 30.7 µM
TGI [45]: 6.5 µM
TGI [46]: 23.7 µM
TGI [47]: 31 µM
TGI [48]: 31.8 µM
TGI [49]: 26 µM
TGI [50]: 23.6 µM
TGI [51]: 28.1 µM
TGI [52]: 18.3 µM
TGI [53]: 33.5 µM

Cc1cnc2sn(-c3ccc([N+](=O)[O-])cc3)c(=O)c2c1
TGI [1]: > 100 µM
TGI [2]: 81.4 µM
TGI [3]: > 100 µM
TGI [4]: > 100 µM
TGI [5]: > 100 µM
TGI [6]: > 100 µM
TGI [7]: > 100 µM
TGI [8]: > 100 µM
TGI [9]: 52.4 µM
TGI [10]: > 100 µM
TGI [11]: > 100 µM
TGI [12]: 51.6 µM
TGI [13]: > 100 µM
TGI [54]: > 100 µM
TGI [15]: > 100 µM
TGI [16]: > 100 µM
TGI [17]: > 100 µM
TGI [18]: > 100 µM
TGI [19]: > 100 µM
TGI [20]: > 100 µM
TGI [21]: > 100 µM
TGI [22]: > 100 µM
TGI [23]: > 100 µM
TGI [55]: > 100 µM
TGI [24]: > 100 µM
TGI [25]: > 100 µM
TGI [26]: > 100 µM
TGI [27]: > 100 µM
TGI [28]: > 100 µM
TGI [29]: > 100 µM
TGI [31]: > 100 µM
TGI [32]: > 100 µM
TGI [56]: > 100 µM
TGI [33]: > 100 µM
TGI [34]: > 100 µM
TGI [35]: > 100 µM
TGI [36]: > 100 µM
TGI [37]: > 100 µM
TGI [39]: > 100 µM
TGI [57]: > 100 µM
TGI [41]: > 100 µM
TGI [42]: > 100 µM
TGI [43]: > 100 µM
TGI [44]: > 100 µM
TGI [45]: > 100 µM
TGI [46]: > 100 µM
TGI [47]: > 100 µM
TGI [48]: > 100 µM
TGI [49]: > 100 µM
TGI [50]: > 100 µM
TGI [52]: > 100 µM
TGI [53]: > 100 µM

CN1CN(c2ccccc2)C2(CCN(CC(C)(c3ccc(F)cc3)C3OCCCO3)CC2)C1=O (stereo unspecified)
TGI [1]: 60.8 µM
TGI [2]: 67.1 µM
TGI [3]: 34.7 µM
TGI [4]: 56.2 µM
TGI [5]: 33.2 µM
TGI [6]: 27.3 µM
TGI [7]: 27.3 µM
TGI [8]: 61.9 µM
TGI [9]: 30.7 µM
TGI [10]: 24.5 µM
TGI [11]: 34.6 µM
TGI [12]: 46.6 µM
TGI [13]: 44.9 µM
TGI [14]: 65.3 µM
TGI [54]: 30.1 µM
TGI [15]: 38.6 µM
TGI [16]: 31.9 µM
TGI [17]: 28.7 µM
TGI [18]: 19.2 µM
TGI [20]: 26.9 µM
TGI [21]: 38.9 µM
TGI [22]: > 100 µM
TGI [23]: 34.6 µM
TGI [55]: 33.6 µM
TGI [24]: 43.7 µM
TGI [25]: 33.4 µM
TGI [28]: 43.1 µM
TGI [29]: 34.5 µM
TGI [30]: 31.5 µM
TGI [31]: 24.5 µM
TGI [32]: 25.7 µM
TGI [33]: 42.7 µM
TGI [34]: 49.2 µM
TGI [35]: 31.8 µM
TGI [36]: 26.6 µM
TGI [37]: 42 µM
TGI [38]: 26.5 µM
TGI [40]: 39.5 µM
TGI [57]: 11 µM
TGI [41]: 34.6 µM
TGI [42]: 31.6 µM
TGI [43]: 32.9 µM
TGI [44]: 38.5 µM
TGI [45]: 30.4 µM
TGI [46]: 33.9 µM
TGI [47]: 30 µM
TGI [48]: 54.8 µM
TGI [49]: 30.2 µM
TGI [58]: 33.7 µM
TGI [51]: 45.9 µM
TGI [52]: 31.1 µM
TGI [53]: 44.3 µM

O=C(O)Cc1ccc(Nc2nc3cc(C(F)(F)F)ccc3nc2C(=O)O)cc1
TGI [2]: > 100 µM
TGI [3]: > 100 µM
TGI [4]: > 100 µM
TGI [5]: > 100 µM
TGI [7]: > 100 µM
TGI [8]: > 100 µM
TGI [9]: > 100 µM
TGI [10]: > 100 µM
TGI [11]: > 100 µM
TGI [12]: > 100 µM
TGI [13]: > 100 µM
TGI [14]: > 100 µM
TGI [54]: > 100 µM
TGI [16]: > 100 µM
TGI [17]: > 100 µM
TGI [18]: > 100 µM
TGI [19]: > 100 µM
TGI [20]: > 100 µM
TGI [21]: > 100 µM
TGI [22]: > 100 µM
TGI [23]: > 100 µM
TGI [55]: > 100 µM
TGI [59]: > 100 µM
TGI [24]: > 100 µM
TGI [25]: > 100 µM
TGI [26]: > 100 µM
TGI [27]: > 100 µM
TGI [28]: > 100 µM
TGI [29]: > 100 µM
TGI [30]: > 100 µM
TGI [31]: > 100 µM
TGI [32]: > 100 µM
TGI [56]: > 100 µM
TGI [33]: > 100 µM
TGI [34]: > 100 µM
TGI [35]: > 100 µM
TGI [36]: > 100 µM
TGI [37]: > 100 µM
TGI [38]: > 100 µM
TGI [39]: > 100 µM
TGI [40]: > 100 µM
TGI [57]: > 100 µM
TGI [41]: > 100 µM
TGI [42]: > 100 µM
TGI [43]: > 100 µM
TGI [44]: > 100 µM
TGI [45]: > 100 µM
TGI [46]: > 100 µM
TGI [47]: > 100 µM
TGI [48]: > 100 µM
TGI [49]: > 100 µM
TGI [58]: > 100 µM
TGI [52]: > 100 µM
TGI [53]: > 100 µM

From PubChem BioAssay (NCI)
